Source: PubChem BioAssay AID1963425 (Molecular Pharmacology Branch, DTP, NCI, 2024)

Test system: 323965-272-R-J2-PDC complex spheroid growth, % test/control
Test: Anticancer human tumor 323965-272-R-J2-PDC patient-derived pancreatic carcinoma cell line growth inhibition [Asc]
Settings: for IC50: curve of first compound; for viability, T/C: stronger effect = lower value
Protocol: Multicellular complex tumor spheroid response to apoptosis pathway targeting inhibitors Alrizomadlin, Pelcitoclax, and Dasminapant in combination with a variety of drugs and investigational agents in selected tumor cell lines
The MDM2 inhibitor alrizomadlin, the Bcl-2/Bcl-xL inhibitor pelcitoclax, and the IAPs inhibitor dasminapant were evaluated both individually and in combination with standard of care and investigational anticancer small molecules within a complex spheroid model of solid tumors. . Complex spheroids include a stromal component modeled by human endothelial cells (HUVEC) and fibroblasts modeled by human mesenchymal stem cells (MSCs). The concentration ranges selected for each drug and investigational agent were based upon clinically achievable concentrations if the clinical Cmax of the agent was known.
Compounds. The drugs and investigational agents: alrizomadlin (APG-115; NSC831270), pelcitoclax (APG-1252; NSC835773), dasminapant (APG-1387;NSC834197), TAK-243 (NSC785004), copanlisib (NSC809693), olaparib (NSC753686), talazoparib (NSC767125), cobimetinib (NSC 768068), eltanexor (KPT-8602, NSC 794443), abemaciclib (NSC 768073), sotorasib (NSC818433), adagrasib (NSC 831453), MRTX-1133 (NSC 836407), Iadademestat (ORY1001, NSC 806812), and RMC-4630 (NSC839698), were obtained from the NCI Developmental Therapeutics Program Chemical Repository. The FDA-approved anticancer drug set is available from the Developmental Therapeutics Program at https://dtp.cancer.gov/organization/dscb/obtaining/available plates.htm. […] The stock solutions were prepared in dimethyl sulfoxide (DMSO, Sigma-Aldrich, St. Louis, MO, cat. D2650) at 800-fold the tested concentration and stored at -70 degrees C prior to their use. All drugs and investigational agents were tested over a range starting from a high concentration at or near the clinical Cmax and decreasing in half-log increments. If the clinical Cmax for an agent had not been determined, the highest concentration tested was 10 microM.
The patient-derived cancer (PDC) cell lines include five colon adenocarcinomas: 186277-243-T-J2-PDC, 616215-338-R-J1-PDC, 439559-082-T-J2-PDC, 463943-066-T-J2-PDC, and 519858-162-T-J1-PDC; three pancreatic carcinomas: 323965-272-R-J2-PDC, 521955-158-R6-J3-PDC, and 521955-158-R2-J5-PDC; two uterine sarcomas: 327498-152-R-J2-PDC and 993429-296-R-J1-PDC; two rhabdomyosarcomas: 755483-174-R-J1-PDC and 772245-204-R-J1-PDC; two soft tissue sarcomas: 126254-015-R-J1-PDC and 494315-158-R-J1-PDC; two malignant fibrous histiocytomas: 317291-083-R-J1-PDC and 596521-263-R-J1-PDC; two breast carcinomas: 171881-019-R-J1-PDC and 885512-296-R-J2-PDC; and one ovarian carcinoma: 6556581-035-R-J-PDC were obtained from the NCI PDMR, (https://pdmr.cancer.gov). The established cell lines HSSY-2 synovial sarcoma (RRID:CVCL 8719), SYO-1 synovial sarcoma (RRID:CVCL_7146), MPNST malignant peripheral neural sheath tumor were obtained from the Sloan Kettering Institute. The following established cell lines were purchased from the American Type Culture Collection (ATCC, Manassas, VA), Sor the received from the NCI repository:, PANC-1 pancreatic carcinoma (CRL-1469, RRID:CVCL_0480), OVCAR-5 ovarian carcinoma (RRID:CVCL_1628), OVCAR-8 ovarian carcinoma (RRID:CVCL_1629), , MCF-7 breast carcinoma (CRL-12584, RRID:CVCL_0031), MDA-MB-231 breast carcinoma (CRL-12532, RRID:CVCL_0062), NCI-H1876 small cell lung carcinoma (CRL-5902, RRID:CVCL_1503), NCI-H510A small cell lung carcinoma (HTB-184, RRID:CVCL_1565), NCI-H1417 (CRL-5869, RRID:CVCL_1469), and NCI-H196 small cell lung carcinoma (CRL-5823, RRID:CVCL_1509). Dr. Peter Houghton (Greehey Children's Cancer Research Institute, University of Texas Health Science Center, San Antonio, TX) provided Rh-18 rhabdomyosarcoma (RRID:CVCL_1659). Pooled donor human umbilical vein endothelial cells (HUVEC, Lonza, cat. CC-2519) and human mesenchymal stem cells (hMSC, Lonza, cat. PT-2501) were purchased from Lonza (Walkersville, MD).
Cell Culture. […]

[1] = second compound 0.0316 µM, first compound 0.0316 µM
[2] = second compound 0.0316 µM, first compound 0.1 µM
[3] = second compound 0.0316 µM, first compound 0.316 µM
[4] = second compound 0.0316 µM, first compound 1 µM
[5] = second compound 0.1 µM, first compound 0.0316 µM
[6] = second compound 0.1 µM, first compound 0.1 µM
[7] = second compound 0.1 µM, first compound 0.316 µM
[8] = second compound 0.1 µM, first compound 1 µM
[9] = second compound 0.316 µM, first compound 0.0316 µM
[10] = second compound 0.316 µM, first compound 0.1 µM
[11] = second compound 0.316 µM, first compound 0.316 µM
[12] = second compound 0.316 µM, first compound 1 µM
[13] = second compound 1 µM, first compound 0.0316 µM
[14] = second compound 1 µM, first compound 0.1 µM
[15] = second compound 1 µM, first compound 0.316 µM
[16] = second compound 1 µM, first compound 1 µM
[17] = second compound 3.16 µM, first compound 0.0316 µM
[18] = second compound 3.16 µM, first compound 0.1 µM
[19] = second compound 3.16 µM, first compound 0.316 µM
[20] = second compound 3.16 µM, first compound 1 µM
[21] = second compound 10 µM, first compound 0.0316 µM
[22] = second compound 10 µM, first compound 0.1 µM
[23] = second compound 10 µM, first compound 0.316 µM
[24] = second compound 10 µM, first compound 1 µM
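Note: compound exposure lasted 7 days starting three days after spheroid seeding.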
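Throughout, for viability, T/C: 100% = DMSO vehicle control wells with viability set relative to vehicle.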

## C=C(F)C(=O)N1CCN(c2nc(OCC3CCCN3C)nc3c2CCN(c2cccc4cccc(Cl)c24)C3)CC1CC#N (centres undefined) + Cc1c(S(C)(=O)=O)c(-c2cc(F)cc(N3CCN(c4ccc(NS(=O)(=O)c5ccc(NC(CCN6CCC(C(=O)OCCCP(=O)(O)O)CC6)CSc6ccccc6)c(S(=O)(=O)C(F)(F)F)c5)cc4)CC3)c2)c(-c2ccc(Cl)cc2)n1C(C)C
Second compound 0.0316 µM
  IC50: 4.34 µM
Second compound 0.1 µM
  IC50: 4.22 µM
Second compound 0.316 µM
  IC50: 3.72 µM
Second compound 1 µM
  IC50: 3.41 µM
Second compound 3.16 µM
  IC50: < 0.0316 µM
Second compound 10 µM
  IC50: < 0.0316 µM
[1]
  viability, T/C: 70.5%
[2]
  viability, T/C: 62.3%
[3]
  viability, T/C: 59.3%
[4]
  viability, T/C: 62.1%
Second compound 0.0316 µM, first compound 3.16 µM
  viability, T/C: 75%
Second compound 0.0316 µM, first compound 10 µM
  viability, T/C: 8.41%
[5]
  viability, T/C: 69.7%
[6]
  viability, T/C: 61.2%
[7]
  viability, T/C: 60.1%
[8]
  viability, T/C: 66.7%
Second compound 0.1 µM, first compound 3.16 µM
  viability, T/C: 72.2%
Second compound 0.1 µM, first compound 10 µM
  viability, T/C: 2.28%
[9]
  viability, T/C: 62.3%
[10]
  viability, T/C: 52.4%
[11]
  viability, T/C: 54.4%
[12]
  viability, T/C: 62.2%
Second compound 0.316 µM, first compound 3.16 µM
  viability, T/C: 60.1%
Second compound 0.316 µM, first compound 10 µM
  viability, T/C: 0.32%
[13]
  viability, T/C: 56%
[14]
  viability, T/C: 50.8%
[15]
  viability, T/C: 51.3%
[16]
  viability, T/C: 55.1%
Second compound 1 µM, first compound 3.16 µM
  viability, T/C: 54.1%
Second compound 1 µM, first compound 10 µM
  viability, T/C: 0.2%
[17]
  viability, T/C: 51.4%
[18]
  viability, T/C: 41.2%
[19]
  viability, T/C: 45%
[20]
  viability, T/C: 41.8%
Second compound 3.16 µM, first compound 3.16 µM
  viability, T/C: 36.8%
Second compound 3.16 µM, first compound 10 µM
  viability, T/C: 0.16%
[21]
  viability, T/C: 44.1%
[22]
  viability, T/C: 43.5%
[23]
  viability, T/C: 34.5%
[24]
  viability, T/C: 41.4%
Second compound 10 µM, first compound 3.16 µM
  viability, T/C: 34.4%
Second compound 10 µM, first compound 10 µM
  viability, T/C: 0.16%

## CCN1CCN(Cc2ccc(Nc3ncc(F)c(-c4cc(F)c5nc(C)n(C(C)C)c5c4)n3)nc2)CC1 + Cc1c(S(C)(=O)=O)c(-c2cc(F)cc(N3CCN(c4ccc(NS(=O)(=O)c5ccc(NC(CCN6CCC(C(=O)OCCCP(=O)(O)O)CC6)CSc6ccccc6)c(S(=O)(=O)C(F)(F)F)c5)cc4)CC3)c2)c(-c2ccc(Cl)cc2)n1C(C)C
Second compound 0.0316 µM
  IC50: > 1 µM
Second compound 0.1 µM
  IC50: > 1 µM
Second compound 0.316 µM
  IC50: > 1 µM
Second compound 1 µM
  IC50: > 1 µM
Second compound 3.16 µM
  IC50: > 1 µM
Second compound 10 µM
  IC50: > 1 µM
Second compound 0.0316 µM, first compound 0.00316 µM
  viability, T/C: 110%
Second compound 0.0316 µM, first compound 0.01 µM
  viability, T/C: 98.8%
[1]
  viability, T/C: 106%
[2]
  viability, T/C: 90.4%
[3]
  viability, T/C: 70.5%
[4]
  viability, T/C: 67.7%
Second compound 0.1 µM, first compound 0.00316 µM
  viability, T/C: 102%
Second compound 0.1 µM, first compound 0.01 µM
  viability, T/C: 109%
[5]
  viability, T/C: 95.1%
[6]
  viability, T/C: 82.5%
[7]
  viability, T/C: 70.7%
[8]
  viability, T/C: 73.6%
Second compound 0.316 µM, first compound 0.00316 µM
  viability, T/C: 103%
Second compound 0.316 µM, first compound 0.01 µM
  viability, T/C: 102%
[9]
  viability, T/C: 100%
[10]
  viability, T/C: 81%
[11]
  viability, T/C: 72.5%
[12]
  viability, T/C: 78.1%
Second compound 1 µM, first compound 0.00316 µM
  viability, T/C: 102%
Second compound 1 µM, first compound 0.01 µM
  viability, T/C: 93.1%
[13]
  viability, T/C: 84.2%
[14]
  viability, T/C: 76.6%
[15]
  viability, T/C: 72.8%
[16]
  viability, T/C: 70.3%
Second compound 3.16 µM, first compound 0.00316 µM
  viability, T/C: 83.9%
Second compound 3.16 µM, first compound 0.01 µM
  viability, T/C: 86.2%
[17]
  viability, T/C: 77.8%
[18]
  viability, T/C: 65.8%
[19]
  viability, T/C: 67.5%
[20]
  viability, T/C: 61.2%
Second compound 10 µM, first compound 0.00316 µM
  viability, T/C: 76.4%
Second compound 10 µM, first compound 0.01 µM
  viability, T/C: 74.4%
[21]
  viability, T/C: 64.1%
[22]
  viability, T/C: 66.5%
[23]
  viability, T/C: 71.3%
[24]
  viability, T/C: 70.3%
